US10370637B2, “Technology for sustaining pluripotency and improved growth of stem cells in culture” (The Regents of the University of California, priority 2015, dated 2019)
Where two headings read alike, the source gives them in different places.

How the values were obtained:
hESC = details: incubated in mTeSR plus NaOAc.3H2O, then transferred to differentiation medium
Procedure: (6A) Spontaneous differentiation of hESC incubated in mTeSR only then transferred to differentiation medium. […] (6B) hESC incubated in mTeSR plus NaOAc.3H2O, then transferred to differentiation medium.
These colonies were labeled with an antibody to Pax6, a marker for ectodermal differentiation.

[1] = system: human embryonic stem cells (hESC)
From the text: These are hallmarks of healthy pluripotent human embryonic stem cells (hESC) in culture. […] These are not normal pluripotent stem cell morphologies and are observed when colonies begin to differentiate.

H9 hESC = details: H9 colony from another lab, mTeSR1 + 10 mM NaOAc.3H2O, 24 hours
hPSC colonies = details: Essential-8 + 10 mM NaOAc.3H2O vs Essential-8 alone
hESC colonies = system: hESC colonies
Procedure: Colonies were incubated in mTeSR or mTeSR plus varying concentrations of NaOAc.3H2O.

[2] = system: human embryonic stem cells (hESC); remark: listed apart in the source
Procedure: FIG. 2 is a panel showing that the addition of NaOc.3H2O to hPSC culture medium rescued human embryonic stem cell cultures, improved attachment/spreading, and decreased cell death. […] (2E) Comparison of hESC attachment in mTeSR1 or mTeSR1+10 mM NaOAc.3H2O, (2F) Spreading of colonies in mTeSR1 only is poor; colonies are elevated, not flat, (2G) Spreading of colonies in mTeSR1+10 mM NaOAc.3H2O is improved; colonies are flatter and spread faster. (2H-2M) StemCellQC™ time-lapse video bioinformatics analysis of colonies grown in mTeSR1 only or mTeSR1+10 mM NaOAc. Colonies cultured in mTeSR1+10 mM NaOAc grow faster (2H and 2I), are rounder (normal morphology) (2J), have better motility (2K and 2L), and have fewer dead cells (2M).
This is very important and may be a factor in preventing unwanted differentiation. FIGS. 2H-M show video bioinformatics analysis of live hESC growing in vitro. This analysis was done on time-lapse images of living cultures and allows quantitative comparison between cells grown in different media.

[3] = mTeSR1 + 10 mM NaOAc vs mTeSR1 only

CC(=O)[O-].O.O.O.[Na+] [NaOAc.3H2O, sodium acetate trihydrate] was tested, and the “Pax6 staining (ectodermal marker)” value (hESC) was “stained positively for Pax6”, the colony morphology ([1]; mTeSR + 1 mM NaOAc.3H2O) was “little effect on colony morphology” and the colony morphology ([1]; mTeSR + 5 or 10 mM NaOAc.3H2O) was “colony morphology was restored to normal”. The “passages without differentiation of colonies” value ([1]; passaged in mTeSR with the NaOAc.3H2O supplement) was “over 20 times”, the colony morphology (H9 hESC) was “round morphology with smooth edges” and the colony morphology (hPSC colonies) was “improved morphology”. For the same compound, the “Oct 4 fluorescence, concentration comparison” value (hESC colonies; 10 μM concentration) was “Fluorescence was strongest”, the Oct4A staining (hESC colonies; mTeSR1 + 5 mM NaOAc) was “Positive Oct4A staining” and the Oct4A staining (hESC colonies; mTeSR1 + 10 mM NaOAc) was “Positive Oct4A staining”. The Sox2 staining (hESC colonies; mTeSR1 + 10 mM NaOAc) was “Positive Sox2 staining”, the “Oct 4 labeling (biomarker for pluripotency)” value (hESC colonies; mTeSR plus varying concentrations of NaOAc.3H2O) was “bright labeling of Oct 4” and the “brightness to area ratio (measurement of cell death)” value [2, 3] was “low brightness to area ratio”. The cell death [2, 3] was “Fewer cells died”, the colony motility [2, 3] was “Motility was greater” and the growth rate [2, 3] was “much faster”. For the same compound, the “solidity (colony roundness)” value [2, 3] was “closer to 1”, the “spreading of hESC colonies on the substrate” value ([2]; mTeSR1 + 10 mM NaOAc.3H2O vs mTeSR1) was “spread faster on the substrate” and the “attachment of cells to their substrate” value ([2]; mTeSR1 + 10 mM NaOAc.3H2O vs mTeSR1, modest but significantly different) was “enhanced the attachment of cells to their substrate”.
